The values that follow come from ChEMBL document CHEMBL4765429, “Discovery of methyl 3-((2-((1-(dimethylglycyl)-5-methoxyindolin-6-yl)amino)-5-(trifluoro-methyl) pyrimidin-4-yl)amino)thiophene-2-carboxylate as a potent and selective polo-like kinase 1 (PLK1) inhibitor for combating hepatocellular carcinoma” (Eur J Med Chem, 2020).

Data set [1] is described as follows: AUC (0 to infinity) in ICR mouse at 5 mg/kg, iv. Type of data set: ADME, organism-based. Also on record: route intravenous, time infinity, dose 5 mg/kg. As to conditions: in vivo.
Data set [2] can be described thus: Half life in ICR mouse at 5 mg/kg, iv. In kind it is ADME, organism-based. The settings on record: in vivo.
A short description of data set [3]: Metabolic stability in human liver microsomes assessed as clearance. In kind it is ADME, Microsome. As to conditions: read-out: CLH. In general terms: Microsomes from liver hold many membrane-bound enzymes, among them those of drug oxidation.
Data set [4] in a line: Metabolic stability in dog liver microsomes assessed as clearance. In kind it is ADME, Canis lupus familiaris, Microsome. The settings on record: read-out: CLH.
A short description of data set [5]: Metabolic stability in rat liver microsomes assessed as clearance. Type of data set: ADME, Microsome. The settings on record: read-out: CLH.
The nature of data set [6]: Volume of distribution at steady state in ICR mouse at 5 mg/kg, iv. As to conditions: in vivo, read-out: Vdss. Type of data set: ADME, organism-based.
Data set [7] is described as follows: Metabolic stability in mouse liver microsomes assessed as clearance. The settings on record: read-out: CLH. Type of data set: ADME, Microsome.
Data set [8] can be described thus: Metabolic stability in monkey liver microsomes assessed as clearance. Type of data set: ADME, Macaca mulatta, Microsome. The settings on record: rhesus monkey, read-out: CLH.

As a reminder, the AUC(0-inf) is the area under the concentration-time curve extrapolated to infinity. The term half-life denotes the time needed for the level to fall by half in the phase considered. For `COC(=O)c1sccc1Nc1nc(Nc2cc3c(cc2OC)CCN3C(=O)CN(C)C)ncc1C(F)(F)F`, the AUC(0-inf) in data set [1] came to 776 ng·h/mL. This molecule also had a half-life in data set [2] of 1.47 h. Further, the CLint scaled in data set [3] was found to be 74.3 mL/min/kg; in data set [4], 61.5 mL/min/kg; in data set [5] it was 91.3 mL/min/kg; in data set [7], 331 mL/min/kg; in data set [8], 196 mL/min/kg. Further, in data set [6], the Vd came to 5.21 L/kg.
